# Like-named read-outs stand apart in the source and are kept apart here.
# Tests used:
# K. pneumoniae B9 (KPB9) = assay: Broth microdilution, colistin potentiation; type: cell-based; set-up: Colistin MIC against KPB9: unit not given here; conditions: for ability to break colistin resistance, KPB9: compound at 500 nM
# Description: (§1) Broth microdilution method for measurement of colistin potentiation: Bacteria were cultured for 4 to 6 hours in CAMHB and diluted to 1.04×10^6 CFU/mL for AB 4106 and 1.96×10^6 CFU/mL for KP B9 in fresh CAMHB. To aliquots (4 mL) was added compound from stock solutions in DMSO. One aliquot was not dosed to allow measurement of the colistin MIC in the absence of compound. A 1 mL aliquot of each sample was dosed with colistin, and from this 200 μL was dispensed into the first row of a 96-well microtiter plate in which all but the final row of subsequent wells was prefilled with 100 μL of the corresponding compound dosed bacterial suspension The final row was filled with media to act as a sterility control and blank. Row one wells were mixed 6-7 times, then, 100 μL was withdrawn and transferred to row two. Row two wells were mixed 6-7 times followed by a 100 μL transfer from row two to row three. This procedure was used to serially dilute the rest of the rows of the microtiter plate, excluding the last prefilled row, which was used to measure growth in the presence of compound alone. Plates were then sealed with GLAD
# (§2) Press'n Seal and incubated under stationary conditions at 37° C. […] MIC values were determined as the minimum concentration required to achieve 90% growth inhibition compared to growth in untreated wells.
# [1] = tested on: A. baumannii 4106 (AB4106); assay: Broth microdilution, colistin potentiation; type: cell-based
# Description: as §1, §2
# AB 4106 = assay: Broth microdilution, standalone MIC of compound; type: cell-based, A. baumannii; conditions: standalone, no colistin, read-out: MIC of compound alone, AB 4106
# Description: Broth microdilution method for the determination of minimum inhibitory concentrations: Bacteria were cultured for 4 to 6 hours in CAMHB and subcultured to 1.04×10^6 CFU/mL for AB 4106 and 1.96×10^6 CFU/mL for KP B9 in fresh CAMHB. To aliquots (1 mL) was added compound from stock solutions in DMSO, such that the compound concentration equaled the highest concentration tested. Samples were then dispensed (200 μL) into the first row of a 96-well microtiter plate in which all but the final row of subsequent wells were prefilled with 100 μL of the untreated bacterial subculture. The final row was filled with media to act as a sterility control and blank. Row one wells were mixed 6-7 times, then, 100 μL was withdrawn and transferred to row two. Row two wells were mixed 6-7 times followed by a 100 μL transfer from row two to row three. This procedure was used to serially dilute the rest of the rows of the microtiter plate, excluding the last prefilled row, which was used to measure growth in the absence of compound. Plates were then sealed with GLAD Press'n Seal and incubated under stationary conditions at 37 C. […] MIC values were determined as the minimum concentration required to achieve 90% growth inhibition compared to growth in untreated wells.
# AB4106 and KPB9 = assay: Initial screen for colistin resistance suppression, statements in words for both strains; type: cell-based, A. baumannii and K. pneumoniae; conditions: compound at 5 μM
# Description: as §1, §2
# 4T1 cells = assay: Cell line toxicity (MTT); type: cell-based
# Description: Cell line Toxicity: 4T1 cells (ATCC Manassas, Va.) were plated at a density of 1×10^4 cells/well in 96-well plates in Roswell Park Memorial Institute Media 1640 (RPMI)
# (Gibco, Gaithersburg, MD) supplemented with 10% Fetal Bovine Serum (Gibco), 2 mM GlutaMAX (Gibco) and 50 μM 2-mercaptoethanol (Sigma Aldrich, St. Louis, Mo.) and incubated at 37 C under a 5% CO2 atmosphere in the dark for 18 h. Cell cultures were treated with serial dilutions of compounds in the presence or absence of 1 μg/mL colistin (3 replicates per condition) and incubated for an additional 18 hours. The following control conditions were used: media only (blank), 1% Triton X100 (0% cell viability), 0.5% DMSO (100% cell viability). Each condition was then treated with 10% volume of a 5 mg/mL solution of 3-(4,5-dimethylthiazol-2-yl)-2,5-diphenyltetrazolium bromide (MTT) (Sigma Aldrich) in sterile filtered 1X phosphate buffered saline (PBS) and incubated for 2 h. at 37 C in 5% CO2, after which the media was aspirated and the resulting formazan crystals were resuspended in 100 μL acidified (4 mM HCl) isopropanol. The 96-well plate was then read at 540 nm on a FLUOstar Optima (BMG Labtech Cary, NC) microplate reader. Cell viability was calculated as a percentage using the two previously mentioned controls.
# AB 4119 = assay: Colistin potentiation, colistin-resistant isolate panel; type: cell-based, A. baumannii; conditions: compound at 5 μM
# AB 4112 = assay: as above; type: cell-based, A. baumannii; conditions: compound at 5 μM
# AB 17978 mcr-1 = assay: as above; type: cell-based, A. baumannii; conditions: compound at 5 μM
# AB 3942 = assay: as above; type: cell-based, A. baumannii; conditions: compound at 5 μM
# AB 3941 = assay: as above; type: cell-based, A. baumannii; conditions: compound at 5 μM
# [2] = compound at 5 μM, colistin alone 2048 μg/mL
# [3] = in presence of compound at 1 μM
# [4] = in presence of compound at 3 μM
# [5] = in presence of compound at 5 μM
smiles,measurement,setting,value
O=C(Nc1cc(C(F)(F)F)cc(C(F)(F)F)c1)c1cc(I)ccc1O [Compound 10],"Colistin potentiation activity in words, KPB9",K. pneumoniae B9 (KPB9); compound at 5 μM,equipotent activity
same,"Colistin MIC fold reduction, AB 4106",[1]; compound at 1 μM,128 fold
same,"Colistin MIC fold reduction, AB 4106",[1]; compound at 3 μM,1024 fold
same,"Colistin potentiation activity in words, AB4106",[1]; compound at 5 μM,superior activity to IMD-0354
same,"Colistin MIC fold reduction, AB 4106",[1]; [2],4096 fold
same,MIC,"AB 4106; Acinetobacter baumannii, 16 h",> 200 µM
same,"Colistin potentiation activity in words, compared to IMD-0354",AB4106 and KPB9,essentially equipotent activity to IMD-0354
O=C(Nc1cc(F)cc(F)c1)c1cc(Cl)ccc1O [Compound 21],CT50 (cytotoxicity),"4T1 cells; mouse, 18 h",210 µM
same,toxicity compared to IMD-0354,"4T1 cells; mouse, 18 h",comparable toxicity to IMD-0354
same,"Colistin MIC fold reduction, AB 4106",[1]; compound at 1 μM,64 fold
same,"Colistin MIC fold reduction, AB 4106",[1]; compound at 3 μM,512 fold
same,"Colistin MIC fold reduction, AB 4106",[1]; [2],1024 fold
same,MIC,"AB 4106; Acinetobacter baumannii, 16 h",> 200 µM
O=C(Nc1cc(C(F)(F)F)cc(C(F)(F)F)c1Cl)c1cc(Cl)ccc1O [Compound 25],Colistin MIC against AB 4119,AB 4119,1 µg/mL
same,Colistin MIC against AB 4112,AB 4112,1 µg/mL
same,toxicity compared to IMD-0354,"4T1 cells; 4T1 cells, MTT",ca. two-fold more toxic than IMD-0354
same,CT50 (cytotoxicity),"4T1 cells; 4T1 cells, MTT, 18 hours",110 µM
same,"Colistin MIC fold reduction, AB 4106",[1]; compound at 1 μM,512 fold
same,"Colistin MIC fold reduction, AB 4106",[1]; compound at 3 μM,1024 fold
same,"Colistin MIC fold reduction, AB 4106",[1]; [2],2048 fold
same,Colistin MIC against AB 4106,[1]; [3],4 µg/mL
same,Colistin MIC against AB 4106,[1]; [4],2 µg/mL
same,Colistin MIC against AB 4106,[1]; [5],1 µg/mL
same,MIC,AB 4106,50 µM
same,Colistin MIC against AB 17978 mcr-1,AB 17978 mcr-1,0.5 µg/mL
same,Colistin MIC against AB 3942,AB 3942,1 µg/mL
same,Colistin MIC against AB 3941,AB 3941,1 µg/mL
O=C(Nc1ccc(C(F)(F)F)cc1)c1cc(Cl)ccc1O [Compound 26],no measurable toxicity up to,"4T1 cells; mouse, 18 h",> 200 µM
same,"Colistin MIC fold reduction, AB 4106",[1]; compound at 1 μM,128 fold
same,"Colistin MIC fold reduction, AB 4106",[1]; compound at 3 μM,1024 fold
same,"Colistin MIC fold reduction, AB 4106",[1]; [2],2048 fold
same,MIC,"AB 4106; Acinetobacter baumannii, 16 h",> 200 µM
same,"Colistin potentiation activity in words, compared to IMD-0354",AB4106 and KPB9,activity equivalent to IMD-0354
O=C(Nc1ccc(F)cc1C(F)(F)F)c1cc(Cl)ccc1O [Compound 27],Colistin MIC against KPB9,K. pneumoniae B9 (KPB9); compound at 5 μM,1
same,"Colistin MIC fold reduction, AB 4106",[1]; [2],256 fold
same,MIC,"AB 4106; Acinetobacter baumannii, 16 h",> 200 µM
O=C(Nc1cc(C(F)(F)F)ccc1F)c1cc(Cl)ccc1O [Compound 28],Colistin MIC against AB 4119,AB 4119,1 µg/mL
same,Colistin MIC against AB 4112,AB 4112,2 µg/mL
same,"Colistin MIC fold reduction, AB 4106",[1]; compound at 1 μM,256 fold
same,"Colistin MIC fold reduction, AB 4106",[1]; compound at 3 μM,1024 fold
same,"Colistin MIC fold reduction, AB 4106",[1]; [2],1024 fold
same,Colistin MIC against AB 4106,[1]; [3],8 µg/mL
same,Colistin MIC against AB 4106,[1]; [4],2 µg/mL
same,Colistin MIC against AB 4106,[1]; [5],2 µg/mL
same,MIC,AB 4106,>200 µM
same,"Colistin potentiation activity in words, compared to IMD-0354",AB4106 and KPB9,activity equivalent to IMD-0354
same,Colistin MIC against AB 17978 mcr-1,AB 17978 mcr-1,0.25 µg/mL
same,Colistin MIC against AB 3942,AB 3942,2 µg/mL
same,Colistin MIC against AB 3941,AB 3941,2 µg/mL
"O=C(Nc1ccc(C(F)(F)F)c(F)c1)c1cc(Cl)ccc1O [Compound 29, 5-chloro-N-(3-fluoro-4-(trifluoromethyl)phenyl)-2-hydroxybenzamide]","colistin MIC relative to breakpoint levels, KPB9","K. pneumoniae B9 (KPB9); compound at 250 nM, breakpoint 2 μg/mL",reduced the colistin MIC below breakpoint levels
same,"ability to break colistin resistance, KPB9",K. pneumoniae B9 (KPB9),retained the ability to break colistin resistance
same,"Colistin MIC fold reduction, AB 4119",AB 4119,(512) fold
same,"Colistin MIC fold reduction, AB 4112",AB 4112,(2048) fold
same,"Colistin MIC fold reduction, AB 4106",[1]; compound at 1 μM,512 fold
same,"Colistin MIC fold reduction, AB 4106",[1]; compound at 3 μM,1024 fold
same,"Colistin MIC fold reduction, AB 4106",[1]; [2],2048 fold
same,MIC,"AB 4106; Acinetobacter baumannii, 16 h",> 200 µM
same,"Colistin potentiation activity in words, compared to IMD-0354",AB4106 and KPB9,activity equivalent to IMD-0354
same,"Colistin MIC fold reduction, AB 17978 mcr-1",AB 17978 mcr-1,(512) fold
same,"Colistin MIC fold reduction, AB 3942",AB 3942,(≥4096) fold
same,"Colistin MIC fold reduction, AB 3941",AB 3941,(1024) fold
Cc1ccc(NC(=O)c2cc(Cl)ccc2O)cc1C [Compound 31],Colistin MIC against KPB9,K. pneumoniae B9 (KPB9); compound at 5 μM,16
same,"Colistin MIC fold reduction, AB 4106",[1]; [2],32 fold
same,Colistin MIC against AB 4106,"[1]; compound at 5 μM, text of b125",64
same,MIC,"AB 4106; Acinetobacter baumannii, 16 h",> 200 µM
Cc1ccc(NC(=O)c2cc(Cl)ccc2O)cc1Br [Compound 32],Colistin MIC against KPB9,K. pneumoniae B9 (KPB9); compound at 5 μM,8
same,"Colistin MIC fold reduction, AB 4106",[1]; [2],32 fold
same,MIC,"AB 4106; Acinetobacter baumannii, 16 h",> 200 µM
O=C(Nc1cc(Cl)cc(Cl)c1)c1cc(I)ccc1O [Compound 51],"ability to break colistin resistance, KPB9",K. pneumoniae B9 (KPB9),retained the ability to break colistin resistance
same,"Colistin MIC fold reduction, AB 4119",AB 4119,(2048) fold
same,"Colistin MIC fold reduction, AB 4112",AB 4112,(2048) fold
same,"Colistin MIC fold reduction, AB 4106",[1]; compound at 1 μM,512 fold
same,"Colistin MIC fold reduction, AB 4106",[1]; compound at 3 μM,2048 fold
same,"Colistin MIC fold reduction, AB 4106",[1]; [2],2048 fold
same,MIC,"AB 4106; Acinetobacter baumannii, 16 h",> 200 µM
same,"Colistin MIC fold reduction, AB 17978 mcr-1",AB 17978 mcr-1,(512) fold
same,"Colistin MIC fold reduction, AB 3942",AB 3942,(≥4096) fold
same,"Colistin MIC fold reduction, AB 3941",AB 3941,(1024) fold
"O=C(Nc1cc(Br)cc(Br)c1)c1cc(I)ccc1O [Compound 52, N-(3,5-dibromophenyl)-2-hydroxy-5-iodobenzamide]","ability to break colistin resistance, KPB9",K. pneumoniae B9 (KPB9),retained the ability to break colistin resistance
same,"Colistin MIC fold reduction, AB 4119",AB 4119,(512) fold
same,"Colistin MIC fold reduction, AB 4112",AB 4112,(2048) fold
same,"Colistin MIC fold reduction, AB 4106",[1]; compound at 1 μM,256 fold
same,"Colistin MIC fold reduction, AB 4106",[1]; compound at 3 μM,1024 fold
same,"Colistin MIC fold reduction, AB 4106",[1]; [2],2048 fold
same,MIC,"AB 4106; Acinetobacter baumannii, 16 h",> 200 µM
same,"Colistin MIC fold reduction, AB 17978 mcr-1",AB 17978 mcr-1,(256) fold
same,"Colistin MIC fold reduction, AB 3942",AB 3942,(≥4096) fold
same,"Colistin MIC fold reduction, AB 3941",AB 3941,(1024) fold
